# Experimental data reported in patent US12351789B2, “Method for producing cell laminate” (FUJIFILM CORPORATION, priority 2017, dated 2025).
# System: cell laminate comprising a vascular endothelial cell layer and a smooth muscle cell layer on an HCM
# Test: Evaluation of response to physiologically active substances (thrombin added to cell laminate, microscopy)
# Format: cell-based
# Settings: 37° C., 30 minutes, rat VEC/SMC-HCM insert
# Description: (1) 0.1 mg (100 UN) of thrombin (#T7009-100UN, Sigma) was dissolved in 100 μL of physiological saline to prepare a thrombin solution having a concentration of 1000 U/mL. The thrombin solution was further diluted with HBSS(+) to prepare a 25 U/mL thrombin solution and a 100 U/mL thrombin solution.
# (2) 900 μL of HBSS(+) was added to each of the wells of a 24-well plate.
# (3) The inserts comprising the cell laminate were taken out of the medium, the medium was removed from the inner side of each insert using an aspirator, and the inserts were placed in the wells.
# (4) 200 μL of either HBSS(+) (control), the 25 U/mL thrombin solution, or the 100 U/mL thrombin solution was added to the inner side of each of the inserts placed on the wells, and the inserts were incubated at 37° C. for 30 minutes.
# (5) The state of the cell laminate was observed under a microscope. The microscopic image of the cell laminate is shown in FIG. 9 (superimposed image of red fluorescence: VE-cadherin and green fluorescence: α-smooth muscle actin).
substance,measurement,setting,value
thrombin,cell contraction,"25 U/mL or 100 U/mL thrombin solution, HBSS(+) control",cell contraction due to activation of actin stress fibers caused by the addition of thrombin was observed
same,dependence of cell contraction on thrombin concentration,25 U/mL versus 100 U/mL thrombin solution,Higher thrombin concentrations caused stronger cell contractions
